Measured values: PubChem BioAssay (NCI)
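1) Cells in 96-well plates. 2) Compound, 48 h, 5 concentrations. 3) Linear interpolation between surrounding doses. 4) Unreached endpoint = highest concentration. The concentration for 50% growth inhibition is given as GI50. TGI marks complete inhibition of growth.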

What was measured:
Experiment in all cases: NCI tumour cell line growth inhibition, 48 h
UACC-257 melanoma = system: UACC-257 melanoma
NCI-H23 lung = system: NCI-H23 lung
LOX IMVI melanoma = system: LOX IMVI melanoma
HOP-62 NSCLC = system: HOP-62 NSCLC
NCI-H522 lung = system: NCI-H522 lung
SK-MEL-5 melanoma = system: SK-MEL-5 melanoma
ACHN renal = system: ACHN renal
SR leukemia = system: SR leukemia
BT-549 breast = system: BT-549 breast
U251 CNS = system: U251 CNS

| Structure (SMILES) | GI50 (UACC-257 melanoma) [µM] | TGI (UACC-257 melanoma) [µM] | GI50 (NCI-H23 lung) [µM] | TGI (NCI-H23 lung) [µM] | GI50 (LOX IMVI melanoma) [µM] | TGI (LOX IMVI melanoma) [µM] | GI50 (HOP-62 NSCLC) [µM] | TGI (HOP-62 NSCLC) [µM] | GI50 (NCI-H522 lung) [µM] | TGI (NCI-H522 lung) [µM] | GI50 (SK-MEL-5 melanoma) [µM] | TGI (SK-MEL-5 melanoma) [µM] | GI50 (ACHN renal) [µM] | TGI (ACHN renal) [µM] | GI50 (SR leukemia) [µM] | TGI (SR leukemia) [µM] | GI50 (BT-549 breast) [µM] | TGI (BT-549 breast) [µM] | GI50 (U251 CNS) [µM] | TGI (U251 CNS) [µM] |
| --- | --- | --- | --- | --- | --- | --- | --- | --- | --- | --- | --- | --- | --- | --- | --- | --- | --- | --- | --- | --- |
| Cn1c(N2NC(=O)C(N=Nc3ccc(S(N)(=O)=O)cc3)C2=O)nc(-c2ccco2)c(C#N)c1=O (stereo not given) | > 50 | > 50 | 12.8 | > 50 | 8.08 | 18.7 | > 50 | > 50 | 5.42 | 26.5 | 35.3 | > 50 | 15.6 | > 50 | 2.89 | 28.4 | 8.67 | 40.6 | 42.3 | > 50 |
| N#C/C(=C1C=C/C(=N/O)C(Br)=C/1)c1ccccc1 | 6.61 | 55.9 | 5.26 | 96.8 | 0.521 | 2.9 | 2.25 | 13 | 1.87 | 5.23 | 2.75 | 10.4 | 1.89 | 14.7 | 0.545 | 8.48 | 9.59 | 27.3 | 2.44 | 8.01 |
| CC1OC(O[C@H]2C[C@@H](O)[C@]3(CO)[C@H]4[C@H](O)C[C@]5(C)[C@@H](C6=CC(=O)OC6)CC[C@]5(O)[C@@H]4CC[C@]3(O)C2)C(O)C(O)C1O (stereo not given in full) | 19.5 | 39.2 | 21.5 | 41.8 | 19 | 34 | 21.7 | 51.9 | 17.8 | 32.5 | 17.7 | 35.2 | 20.2 | 35.5 | 10.2 | 38 | 18 | 32.7 | 18.8 | 33.7 |
| CCOc1cccc(/C=N/NC(=O)c2ccccc2Nc2ccnc(C(F)(F)F)c2)c1O | 0.693 | 47.6 | 1.08 | > 64.5 | 0.241 | > 100 | 0.901 | > 53.8 | 3.47 | > 63 | 0.5 | 4.91 | 0.271 | > 67.8 | 0.0576 | 0.363 | 0.494 | 53.6 | 0.375 | > 100 |
| O=C(NCCOCCOCCNc1cccc2c1C(=O)N(C1CCCNC1=O)C2=O)c1cc2c(o1)C(=O)c1ccccc1C2=O (stereo not given) | 1.45 | 2.89 | 0.313 | 1.79 | 1.17 | 3 | 1.91 | 3.37 | 2 | 4.77 | 0.707 | 1.99 | 2.29 | 6.5 | 2.63 | > 100 | 1.59 | 2.98 | 1.9 | 3.9 |
| CN1CCN(Cc2ccc(NC(=O)c3cncc(C#Cc4cnc(N)c5ccc(C#N)cc45)c3)cc2C(F)(F)F)CC1 | 0.136 | 3.09 | 0.172 | 1.27 | 0.0203 | 0.546 | 0.0439 | 0.927 | 0.088 | 1.69 | 0.176 | 0.696 | 0.0237 | 0.526 | 0.0464 | 2.4 | 0.729 | 10.8 | 0.0235 | 0.846 |
| COc1ccc(/C(=C2\O[C@@H]([C@H]3COC(C)(C)O3)[C@H]3OC(C)(C)O[C@@H]23)c2cc(OC)c(OC)c(OC)c2)cc1O | > 100 | > 100 | 7.96 | 46 | 5.18 | > 100 | 5.93 | 25.5 | 2.73 | 9.08 | 2.69 | 11.2 | 9.31 | > 100 | 6.27 | > 100 | 5.39 | > 100 | 3.84 | 48.2 |
| CC1=C(C(=O)Nc2ccc3[nH]ncc3c2)C(c2ccc3ccccc3c2)CC(=O)N1 (stereo not given) | > 25 | > 25 | 19 | > 25 | 13.2 | > 25 | 6.46 | > 25 | 13.8 | > 25 | > 19.3 | > 25 | > 25 | > 25 | > 25 | > 25 | 4.11 | > 25 | > 25 | > 25 |
| Cc1cc(N(CCOS(C)(=O)=O)CCOS(C)(=O)=O)ccc1C=Nc1ccc(-c2nc(Cc3ccccc3)sc2C)cc1 | – | 28.4 | – | 17.8 | – | 20.2 | – | 20.8 | – | 0.648 | – | 26.7 | – | 3.51 | – | 18.5 | – | 34.8 | – | 22.8 |
| Cc1ccc(S(=O)(=O)N(CCOc2ccc(/C(N)=N/Cl)cc2)CCOc2ccc(/C(N)=N\Cl)cc2)cc1 | 23.3 | 90.5 | 12 | 40.1 | 16.7 | > 100 | 12 | 33.2 | 13.3 | 76.4 | 10.3 | 26.8 | > 100 | > 100 | 27.8 | > 100 | 14.1 | 36.6 | 3.91 | 16.8 |
| COC(=O)c1cc2c3ccccc3[nH]c2c2ncccc12 | > 100 | > 100 | 27.2 | > 100 | 9.46 | > 100 | 68.9 | > 100 | 86 | > 100 | 58 | > 100 | 11.2 | > 100 | 66.4 | > 100 | 17.9 | 78.8 | 30.6 | > 100 |
| CCc1c(Oc2ccc(C(C)=O)cc2)c2ccccc2[nH]c1=O | 14.5 | 55.1 | 18.7 | 59.5 | 17.3 | 46.2 | 20.4 | 74.3 | 14.1 | > 68.3 | 13 | 27.5 | 16.7 | 63.5 | 9.09 | > 100 | 17.6 | 70.8 | 19.2 | > 82 |
